PMC7932537, “Quantitative profiling of protease specificity” (PLoS Computational Biology, 2021)

Assays:
Assay type in all cases: biochemical, human
MMP-2 [1] = assay: Substrate phage display with NGS: relative probability (RP) of P3-P1' tetramer clusters; details: RP of matching tetramer of the cleavage site; unique part of MMP9 selectome
MMP-9 [2] = assay: as above; details: RP of matching tetramer of the cleavage site; unique part of MMP9 selectome
MMP-2 [3] = assay: N-terminomic (TMT) analysis of MMP-treated HEK293 secretome: isotopic enrichment of novel N-termini; details: for isotopic enrichment (log2(ratio)): MMP2 cleavages in HEK293 cell proteins, determined by LC-MS/MS, novel N-termini, sections log2(ratio) >3σ, 2σ-3σ, 1σ-2σ, RP above 4.5
Protocol: (§1) This was done to achieve a reasonable compromise between the false positive and false negative rates based on the statistical model developed by the authors. […] (See Methods for details).
(§2) HEK293 cells were seeded in 150-mm tissue culture dishes (Corning) and grown to confluence. The confluent cultures were washed with PBS several times to remove serum proteins and kept in serum-free DMEM supplemented with 1 μM GM6001 for 72 hours at 37 C, 5% CO2. The conditioned media was centrifuged at 10,000 x g for 30 minutes at 4 C and concentrated ~100-fold using Centricon Plus-70 (AMD Millipore) 3-kDa m.w. cut-off ultrafilter, and the buffer was exchanged to 50 mM HEPES pH 7.0 containing 150 mM NaCl and 10 mM CaCl2 (Reaction Buffer) using a PD-10 desalting column (GE Healthcare). Aliquots containing 240 μg total protein were incubated at 37 C in the presence of 750 nM MMP2 or 9 or the Reaction Buffer alone for 2 hours. Each reaction was carried out in duplicate. The reactions were stopped by addition of 20 mM EDTA and subjected to denaturation/reduction (4M Urea and 10 mM TCEP, 1 h, 22°C) and alkylation (20 mM iodoacetamide, 30 min, 22°C, in dark). […] The TMT-labeled samples were pooled together, and subjected to TCA precipitation (20% TCA, 16 h, 4°C). Each pellet was washed with -20°C acetone, recovered in 50 mM Tris-HCl pH 8.0, and then digested with trypsin/Lys-C (Promega) for 16 h at 37°C. Digestions were stopped with 0.2% TFA and centrifuged to remove insoluble material. The supernatants were then desalted using Sep-Pak C18 cartridge (50 mg), and then lyophilized.
(§3) Dried pooled sample was reconstituted in 20 mM ammonium formate pH ~10 and fractionated using a Waters Acquity BEH C18 column (2.1x 15 cm, 1.7 μm pore size) mounted on an M-Class Ultra Performance Liquid Chromatography (UPLC) system (Waters). […] A total of 32 fractions were collected and pooled in a non-contiguous manner into 16 total fractions. Pooled fractions were dried to completeness in a SpeedVac concentrator prior to mass spectrometry analysis.
(§4) Dried peptide fractions were reconstituted with 2% ACN-0.1% FA and analyzed by LC-MS/MS using a Proxeon EASY nanoLC system (Thermo Fisher Scientific) coupled to a Q-Exactive Plus mass spectrometer (Thermo Fisher Scientific). […] The mass spectrometer was operated in positive data-dependent acquisition mode. MS1 spectra were measured with a resolution of 70,000 (AGC target: 1e6; mass range: 350–1700 m/z).
(§5) The false discovery rate (FDR) filter for spectrum and protein identification was set to 1%. Carbamidomethylation of cysteines was searched as a fixed modification, while oxidation of methionines and N-terminal acetylation were searched as variable modifications. Enzyme was set to trypsin in a semispecific mode and a maximum of two missed cleavages was allowed for searching. To obtain quantification of the TMT-labeled N-termini, two independent searches were performed–one with TMT10plex MS2 N-terminal reporter quantification and the other for quantification of N-terminal and lysine sidechain.

MMP-9 [4] = assay: as above; details: for isotopic enrichment (log2(ratio)): MMP9 cleavages in HEK293 cell proteins, determined by LC-MS/MS, log2(ratio) range (>3σ, 2σ-3σ, 1σ-2σ)
Protocol: as §1, §2, §3, §4, §5

[5] = HEK293 secretome, 750 nM MMP-2, 2 h, 37 C, TMT reporter ratio vs untreated control, LC-MS/MS, duplicate
[6] = HEK293 secretome, 750 nM MMP-9, 2 h, 37 C, TMT reporter ratio vs untreated control, LC-MS/MS, duplicate
[7] = MMP2 cleaved HEK293 proteins, common set of MMP2-9 selectome, LC-MS/MS
[8] = MS detected cleavage sequence, HEK293 proteins, common MMP2-9 selectome
[9] = MMP9, HEK293 proteins, common set of MMP2-9 selectome, LC-MS/MS
[10] = MS detected cleavage sequence, HEK293 proteins, unique part of MMP2 selectome

Substance	isotopic enrichment (log2(ratio)) (MMP-9 [4])	isotopic enrichment (log2(ratio)) (acc.to MMP2) (MMP-2 [3]; [7])	isotopic enrichment (log2(ratio)) (acc.to MMP2) (MMP-2 [3]; [8])	isotopic enrichment (log2(ratio)) (acc.to MMP9) (MMP-9 [4]; [9])	isotopic enrichment (log2(ratio)) (acc.to MMP9) (MMP-9 [4]; [8])	also measured
FCPMA-AHEEIC [MS detected cleavage site in Fibronectin (P02751)]	1.774					relative probability (RP) (acc.to MMP2) (MMP-2 [1]): 3.68; relative probability (RP) (acc.to MMP9) (MMP-9 [2]): 16.94; isotopic enrichment (log2(ratio)) (acc.to MMP2) (MMP-2 [3]; [5]): 0.5261 log2(ratio); isotopic enrichment (log2(ratio)) (acc.to MMP9) (MMP-9 [4]; [6]): 1.774 log2(ratio)
GKPFK-IQVLVE [MS detected cleavage site in Galectin-3 (P17931)]	1.459					relative probability (RP) (acc.to MMP2) (MMP-2 [1]): 1.13; relative probability (RP) (acc.to MMP9) (MMP-9 [2]): 34.84; isotopic enrichment (log2(ratio)) (acc.to MMP2) (MMP-2 [3]; [5]): 0.7991 log2(ratio); isotopic enrichment (log2(ratio)) (acc.to MMP9) (MMP-9 [4]; [6]): 1.459 log2(ratio)
NHIRY-VISQGN [MS detected cleavage site in Fibrillin-2 (P35556)]	3.134					relative probability (RP) (acc.to MMP2) (MMP-2 [1]): 0.96; relative probability (RP) (acc.to MMP9) (MMP-9 [2]): 10.4; isotopic enrichment (log2(ratio)) (acc.to MMP2) (MMP-2 [3]; [5]): 1.367 log2(ratio); isotopic enrichment (log2(ratio)) (acc.to MMP9) (MMP-9 [4]; [6]): 3.134 log2(ratio)
KSIYY-ITGESK [MS detected cleavage site in Heat shock protein HSP 90-beta (P08238)]	3.962					relative probability (RP) (acc.to MMP9) (MMP-9 [2]): 14.54; isotopic enrichment (log2(ratio)) (acc.to MMP2) (MMP-2 [3]; [5]): 0.3785 log2(ratio); isotopic enrichment (log2(ratio)) (acc.to MMP9) (MMP-9 [4]; [6]): 3.962 log2(ratio)
GRTLG-LYGKDQ	3.7845	2.467	2.467 log2(ratio)	3.7845	3.7845 log2(ratio)	
FNPLS-LEELGS	1.82		0.84 log2(ratio)		1.82 log2(ratio)	
YRPVA-VALDTK	2.604	1.934	1.934 log2(ratio)	2.604	2.604 log2(ratio)	
HLNRG-FHQEVF						isotopic enrichment (log2(ratio)) (acc.to MMP2) (MMP-2 [3]; [10]): 1.531 log2(ratio); isotopic enrichment (log2(ratio)) (acc.to MMP9) (MMP-9 [4]; [10]): 1.782 log2(ratio)
SHLGR-YLAADK						isotopic enrichment (log2(ratio)) (acc.to MMP2) (MMP-2 [3]; [10]): 2.483 log2(ratio); isotopic enrichment (log2(ratio)) (acc.to MMP9) (MMP-9 [4]; [10]): -1.0291 log2(ratio)
STMNM-LGGGGS						isotopic enrichment (log2(ratio)) (acc.to MMP2) (MMP-2 [3]; [10]): 2.417 log2(ratio); isotopic enrichment (log2(ratio)) (acc.to MMP9) (MMP-9 [4]; [10]): 0.9184 log2(ratio)
GSPDA-LQNPCY	3.536		0.926 log2(ratio)		3.536 log2(ratio)	
EAPRP-YSKQVS	1.531	1.239	1.239 log2(ratio)	1.531	1.531 log2(ratio)	
SDPLT-LLQADT	2.254	1.22	2.4906 log2(ratio)	2.254	2.254 log2(ratio)	isotopic enrichment (log2(ratio)) (MMP-2 [3]): 1.22 log2(ratio)
ADIAF-LIDGSF		1.124		0.8797		isotopic enrichment (log2(ratio)) (MMP-2 [3]): 1.124 log2(ratio)
MVPRA-VYLPNC	2.491	1.989	1.989 log2(ratio)	2.491	2.491 log2(ratio)	
GLPRE-LAEAVA	2.272		0.7485 log2(ratio)		2.272 log2(ratio)	

Substance	isotopic enrichment (log2(ratio)) (MMP-9 [4])	isotopic enrichment (log2(ratio)) (acc.to MMP2) (MMP-2 [3]; [7])	isotopic enrichment (log2(ratio)) (acc.to MMP2) (MMP-2 [3]; [8])	isotopic enrichment (log2(ratio)) (acc.to MMP9) (MMP-9 [4]; [9])	isotopic enrichment (log2(ratio)) (acc.to MMP9) (MMP-9 [4]; [8])	also measured
FSLFG-LGGEPG	2.104	1.417	1.417 log2(ratio)	2.104	2.104 log2(ratio)	
EGPYS-ISVLYG		1.176		0.9411		isotopic enrichment (log2(ratio)) (MMP-2 [3]): 1.176 log2(ratio)
SYAGS-LAEPYE		1.521		0.9635		isotopic enrichment (log2(ratio)) (MMP-2 [3]): 1.521 log2(ratio)
DMAAA-MKAVTE		1.766		1.328		isotopic enrichment (log2(ratio)) (MMP-2 [3]): 1.766 log2(ratio)
ETAIN-ITTYPD	2.536	1.84	1.84 log2(ratio)	2.536	2.536 log2(ratio)	
NFLSW-LYNDSP	1.57	1.971	1.971 log2(ratio)	1.57	1.57 log2(ratio)	
SSAAA-LSLCEG		1.036		0.3785		isotopic enrichment (log2(ratio)) (MMP-2 [3]): 1.036 log2(ratio)
QLNAQ-LAAGNP						isotopic enrichment (log2(ratio)) (acc.to MMP2) (MMP-2 [3]; [10]): 1.66 log2(ratio); isotopic enrichment (log2(ratio)) (acc.to MMP9) (MMP-9 [4]; [10]): 0.8237 log2(ratio)
TGPRF-LISDRD	2.331	1.669	1.669 log2(ratio)	2.331	2.331 log2(ratio)	
GFGRG-LSDKKS	2.021	1.9486	1.9486 log2(ratio)	2.021	2.021 log2(ratio)	
NFWGA-LSADGY						isotopic enrichment (log2(ratio)) (acc.to MMP2) (MMP-2 [3]; [10]): 1.683 log2(ratio); isotopic enrichment (log2(ratio)) (acc.to MMP9) (MMP-9 [4]; [10]): 0.9855 log2(ratio)
PTPVP-VVGSQM	2.707	1.915	1.915 log2(ratio)	2.707	2.707 log2(ratio)	
SLARA-YSSFNP	2.539	2.269	2.269 log2(ratio)	2.539	2.539 log2(ratio)	
MPMF-IVNTNV	1.66		0.8319 log2(ratio)		1.66 log2(ratio)	
RKATP-YTFPGG	1.753	1.541	1.541 log2(ratio)	1.753	1.753 log2(ratio)	
PEPPP-LSGAPQ	1.9855	1.367	1.367 log2(ratio)	1.9855	1.9855 log2(ratio)	
